Patent US20210023012A1, “Solid Pharmaceutical Compositions for Treating HCV” (AbbVie Inc., priority 2019, published 2021)
Marks after values point to notes of the source that are not given here.

Key:
[1] = Phase 1 single-dose crossover: bioavailability and food effect of Compound 1/Compound 2 bilayer tablets; type: in vivo, human; conditions: for Cmax / AUC(0-inf) / AUC(0-t) / half-life / Tmax: human, in vivo, oral, N = 23; for Cmax / AUC(0-inf) / AUC(0-t): geometric mean; for half-life: harmonic mean; for Tmax: median
Protocol: Phase 1, single-dose, four-period, randomized, complete crossover clinical trials were conducted to determine the bioavailability and food effect of the Compound 1/Compound 2 film-coated bilayer tablets. Tablets described in Table 1b were used in Regimens A, B and C, and separate tablets containing either Compound 1 or Compound 2 were used in Regimen D. Subjects took a single dose of Compound 1/Compound 2 on Day 1 of each Period. There was a washout of 4 days between doses. • i. Regimens A and D: study drugs were taken under fasting conditions. • ii. Regimen B: study drugs were taken approximately 30 minutes after start of moderate-fat breakfast (about 30% calories from fat). • iii. Regimen C: study drugs were taken approx. 30 minutes after start of high-fat breakfast (50% calories from fat). For Regimens A, B and C, the single dose consisted of three tablets of Table 1b, each tablet contains 100 mg/40 mg Compound 1/Compound 2. For Regimen D, the single dose contained three tablets of Compound 1, each of which contained 100 mg Compound 1, as well as three tablets of Compound 2, each of which contained 40 mg Compound 2. [table] [table]

[2] = Single-dose crossover: bioavailability of Compound 1/Compound 2 mini-tablets; type: in vivo, human; conditions: for Cmax / AUC(0-inf) / AUC(0-t) / half-life / Tmax: human, in vivo, oral, N = 14; for Cmax / AUC(0-inf) / AUC(0-t): geometric mean; for half-life: harmonic mean; for Tmax: median
Protocol: In comparison, when administered with food, the mini-tablets provided an AUC that was only 5% lower than that provided by the regular tablets. […] All of the reference AUCs of the regular tablets were measured under fasting conditions.
14 subjects were enrolled in this study and dosed with co-formulated Compound 1/Compound 2 in mini-tablets. One subject spilled 4 mini-tablets (out of 100-150 total mini-tablets) during dosing of Period 2 (Regimen G) and was not excluded from the analysis. The mini-tablets were prepared according to a process similar to that described in Example 2.

[3] = Steady-state pharmacokinetics of film-coated granules in pediatric subjects by age group; type: in vivo, human; design: Ctrough: unit not given here; conditions: for Ctrough / AUC: Week 2; for AUC: human, oral, film-coated granules
Protocol: The study was designed to assess the steady state AUC and to assess the pharmacokinetics (PK) of Compound 1/Compound 2 in pediatric subjects by age group. […] Subjects were enrolled in this study and dosed with film-coated granules containing Compound 1/Compound 2 as generally described above in Example 3. [table] An intensive PK sample draw was done at the Week 2 visit with blood samples taken immediately prior to dose (0 hour) and at 2, 4, 6, and 12 hours post dose.

clinical = conditions: human, in vivo
Excerpt: Target AUC was derived from the geometric mean of AUC values from a population of adult subjects who received Compound 1 and Compound 2.

[4] = Predicted PK exposures (Pop-PK AUC) in pediatric subjects; type: in vivo; design: concentration or dose not given beside the values; conditions: human, oral
Excerpt: The predicted PK exposures (“Pop-PK AUC”) of Compound 1/Compound 2 based on all PK information collected in the study (including data from other study weeks) is shown in Table 13 and Table 13a.

[5] = Pharmacokinetic properties in healthy subjects; type: in vivo, human; conditions: for Tmax: oral, median, single doses
[6] = Binding to human plasma proteins; type: in vitro ADME; conditions: read-out: % Bound to human plasma proteins (converted)
Blood-to-plasma ratio = type: in vitro ADME; conditions: human, whole blood/plasma
[7] = Mass balance studies with [14C] compound, single dose; type: in vivo, human; conditions: single dose of [14C] compound
P-gp = P-gp (Homo sapiens, UniProt P08183); assay: Substrate of transporter P-gp; type: in vitro ADME
[8] = Phase 1 single-dose crossover: bioavailability and food effect of Compound 1/Compound 2 bilayer tablets; type: in vivo, human; conditions: film-coated vs uncoated bilayer tablets, additional studies
[9] = Regimen A: single dose bilayer tablets 300 mg/120 mg, fasting
[10] = Regimen B: single dose bilayer tablets 300 mg/120 mg with moderate fat breakfast
[11] = Regimen C: single dose bilayer tablets 300 mg/120 mg with high fat breakfast
[12] = Regimen D: single dose separate Compound 1 tablets (3 × 100 mg) and Compound 2 tablets (3 × 40 mg), fasting
[13] = Regimen F: single dose mini-tablets 200 mg/120 mg, fasting
[14] = Regimen G: single dose mini-tablets 200 mg/120 mg, non-fasting
[15] = Regimen J: two Compound 1 tablets (100 mg each) and three Compound 2 tablets (40 mg each), fasting
[16] = mean systemic exposure with moderate to high fat meals

Sequence of P-gp (P08183 whole entry): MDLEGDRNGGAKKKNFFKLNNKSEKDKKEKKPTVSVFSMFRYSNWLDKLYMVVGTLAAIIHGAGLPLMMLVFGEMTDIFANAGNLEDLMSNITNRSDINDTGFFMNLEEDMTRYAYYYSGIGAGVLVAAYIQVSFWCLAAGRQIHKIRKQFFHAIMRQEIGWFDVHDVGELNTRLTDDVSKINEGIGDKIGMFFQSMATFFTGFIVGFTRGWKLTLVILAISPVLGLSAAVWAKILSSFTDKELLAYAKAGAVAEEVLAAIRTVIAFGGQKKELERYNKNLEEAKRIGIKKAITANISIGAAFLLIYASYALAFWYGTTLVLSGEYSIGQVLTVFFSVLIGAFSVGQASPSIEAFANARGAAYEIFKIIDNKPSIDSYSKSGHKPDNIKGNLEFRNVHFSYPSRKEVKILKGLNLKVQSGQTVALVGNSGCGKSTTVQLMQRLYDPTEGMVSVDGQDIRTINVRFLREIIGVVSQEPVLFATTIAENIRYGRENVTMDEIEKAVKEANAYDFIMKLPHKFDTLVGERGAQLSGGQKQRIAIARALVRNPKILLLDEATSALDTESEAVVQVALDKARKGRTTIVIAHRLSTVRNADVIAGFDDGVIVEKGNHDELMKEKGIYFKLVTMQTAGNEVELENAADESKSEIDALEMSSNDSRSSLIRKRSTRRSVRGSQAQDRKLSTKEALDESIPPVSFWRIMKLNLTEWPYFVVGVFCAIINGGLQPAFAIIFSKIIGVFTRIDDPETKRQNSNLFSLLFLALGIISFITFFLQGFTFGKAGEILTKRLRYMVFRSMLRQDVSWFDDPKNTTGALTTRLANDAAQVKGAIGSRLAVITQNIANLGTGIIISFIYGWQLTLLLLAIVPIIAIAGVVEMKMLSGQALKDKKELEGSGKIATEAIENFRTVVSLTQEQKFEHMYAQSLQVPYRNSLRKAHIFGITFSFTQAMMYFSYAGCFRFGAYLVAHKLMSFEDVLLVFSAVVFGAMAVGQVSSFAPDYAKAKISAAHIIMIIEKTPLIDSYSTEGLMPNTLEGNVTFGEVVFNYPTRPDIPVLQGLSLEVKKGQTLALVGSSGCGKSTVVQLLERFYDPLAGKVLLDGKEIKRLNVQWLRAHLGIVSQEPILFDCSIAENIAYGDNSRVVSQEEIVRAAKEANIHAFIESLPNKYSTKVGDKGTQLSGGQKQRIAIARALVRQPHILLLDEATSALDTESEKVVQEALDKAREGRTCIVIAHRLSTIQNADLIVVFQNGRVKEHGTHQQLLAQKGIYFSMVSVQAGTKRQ

CC(C)(C)[C@@H]1NC(=O)O[C@@H]2CCC[C@H]2OC/C=C/C(F)(F)c2nc3ccccc3nc2O[C@@H]2C[C@@H](C(=O)N[C@]3(C(=O)NS(=O)(=O)C4(C)CC4)C[C@H]3C(F)F)N(C2)C1=O [Compound 1]
Effect of administration with food on bioavailability ([1]; bilayer tablets): significantly improved
Cmax ([1]; Regimen A: single dose bilayer tablets 300 mg/120 mg (3 × 100 mg/40 mg), fasting): 294 ng/mL
AUC(0-inf) [1, 9]: 1150 ng·h/mL
AUC(0-t) [1, 9]: 1150 ng·h/mL
half-life [1, 9]: 6 h
Tmax [1, 9]: 3 h
AUC(0-inf) [1, 10]: 3040 ng·h/mL
AUC(0-t) [1, 10]: 3040 ng·h/mL
Cmax [1, 10]: 937 ng/mL
half-life [1, 10]: 6 h
Tmax [1, 10]: 4 h
AUC(0-inf) [1, 11]: 2120 ng·h/mL
AUC(0-t) [1, 11]: 2110 ng·h/mL
Cmax [1, 11]: 633 ng/mL
half-life [1, 11]: 6.3 h
Tmax [1, 11]: 5 h
AUC(0-inf) [1, 12]: 2620 ng·h/mL
AUC(0-t) [1, 12]: 2620 ng·h/mL
Cmax [1, 12]: 803 ng/mL
half-life [1, 12]: 5.7 h
Tmax [1, 12]: 2 h
Effect of administration with food on bioavailability ([2]; co-formulated mini-tablets): significantly increased
Cmax ([2]; Regimen F: single dose mini-tablets 200 mg/120 mg Compound 1/Compound 2, fasting): 123 ng/mL
AUC(0-inf) [2, 13]: 432 ng·h/mL
AUC(0-t) [2, 13]: 428 ng·h/mL
half-life [2, 13]: 5.61 h
Tmax [2, 13]: 1 h
Cmax ([2]; Regimen G: single dose mini-tablets 200 mg/120 mg Compound 1/Compound 2, non-fasting): 166 ng/mL
AUC(0-inf) [2, 14]: 704 ng·h/mL
AUC(0-t) [2, 14]: 699 ng·h/mL
half-life [2, 14]: 6.42 h
Tmax [2, 14]: 1.75 h
Cmax ([2]; Regimen J: single dose two Compound 1 tablets (100 mg each) and three Compound 2 tablets (40 mg each), fasting): 212 ng/mL
AUC(0-inf) [2, 15]: 742 ng·h/mL
AUC(0-t) [2, 15]: 738 ng·h/mL
half-life [2, 15]: 5.93 h
Tmax [2, 15]: 1.5 h
AUC of mini-tablets lower than that of regular tablets (fasting) ([2]; mini-tablets with food, 200 mg Compound 1): 5%
AUC of mini-tablets lower than that of regular tablets (fasting) ([2]; mini-tablets without food, 200 mg Compound 1 / 120 mg Compound 2, same solid dispersion formulation): 41%
Ctrough ([3]; 3 to <6 years old, post-adjustment 150 mg/60 mg, N 10): 9.8
Ctrough ([3]; 6 to <9 years old, post-adjustment 200 mg/80 mg, N 9): 8.2
Ctrough ([3]; 9 to <12 years old, post-adjustment 250 mg/100 mg, N 10): 17.0
AUC ([3]; blood, 3 to <6 years old, post-adjustment, 3 sachets, 150 mg/60 mg, N 10, read-out: AUC): 6700 ng·h/mL
AUC ([3]; blood, 6 to <9 years old, post-adjustment, 4 sachets, 200 mg/80 mg, N 9, read-out: AUC): 5970 ng·h/mL
AUC ([3]; blood, 9 to <12 years old, post-adjustment, 5 sachets, 250 mg/100 mg Compound 1/Compound 2, N 10, read-out: AUC): 8670 ng·h/mL
AUC ([3]; in vivo, 3 to <6 years old, pre-adjustment, 3 sachets, 120 mg/45 mg, read-out: AUC, Geometric Mean): 3030 ng·h/mL
AUC ([3]; in vivo, 6 to <9 years old, pre-adjustment, 4 sachets, 160 mg/60 mg, read-out: AUC, Geometric Mean): 1680 ng·h/mL
AUC ([3]; in vivo, 9 to <12 years old, pre-adjustment, 5 sachets, 200 mg/75 mg Compound 1/Compound 2, read-out: AUC, Geometric Mean): 4070 ng·h/mL
Exposures in children aged 3 to <12 years vs adolescents 12 to <18 years and adults from Phase 2/3 studies ([3]; recommended doses according to body weight): comparable
AUC (clinical): 4800 ng·h/mL
AUC ([4]; blood, Table 13, 3 to <6 years old, N 10, predicted): 6310 ng·h/mL
AUC ([4]; blood, Table 13, 6 to <9 years old, N 9, predicted): 5770 ng·h/mL
AUC ([4]; blood, Table 13, 9 to <12 years old, N 10, predicted from all PK information collected in the study): 5180 ng·h/mL
AUC ([4]; in vivo, Table 13a, 3 to <6 years old, N 10, predicted): 8990 ng·h/mL
AUC ([4]; in vivo, Table 13a, 6 to <9 years old, N 9, predicted): 5160 ng·h/mL
AUC ([4]; in vivo, Table 13a, 9 to <12 years old, N 10, predicted): 8120 ng·h/mL
Metabolism ([5]; Biotransformation): Secondary
Major route of elimination ([5]; human, in vivo): Biliary
Tmax ([5]; human, in vivo, healthy subjects, read-out: Tmax of granules): 3 to 4 h
Tmax ([5]; human, in vivo, healthy subjects, read-out: Tmax of tablets): 5 h
half-life ([5]; human, in vivo, healthy subjects, read-out: t1/2 at steady-state): 6 to 9 h
Effect of meal (relative to fasting) on adult tablets, ↑ [5, 16]: ↑ 83-163%
Effect of meal (relative to fasting) on granules, ↑ [5, 16]: ↑ 131-168%
fraction unbound [6]: 0.025
blood plasma ratio (Blood-to-plasma ratio): 0.57
% of dose excreted in faeces [7]: 92.1^d %
% of dose excreted in urine [7]: 0.7%
Substrate of transporter (P-gp): P-gp,
Impact of film-coating on bioavailability [8]: minimal impact
